Legend:
interferon (α) (IFN-α) = experiment: Cytokine induction in human cells: IFN-α secreted by PBMC into culture media (ELISA); format: cell-based; conditions: for Maximal Response IFN / Minimum Effective Concentration IFN / minimal effective concentration: human PBMC; for Maximal Response IFN / Minimum Effective Concentration IFN: median where tested in more than one experiment; for minimal effective concentration: lowest tested concentration inducing IFN-α over usually 20 pg/mL, median where more than one experiment, read-out: Minimum Effective Concentration (μM) IFN; for Maximal Response (pg/mL) IFN: maximal response in dose response curve, median
Summary of the method: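 IFN-α secreted by density-gradient-isolated PBMC (final 2×10^6 cells/mL) was quantified by ELISA after 18–24 h compound exposure at 37 °C, typically 30-0.014 μM in 3-fold steps with ≤1% DMSO. Readings corrected for background and reference-compound variability; lowest concentration above usually 20 pg/mL reported, plus maximal response (pg/mL).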

[1] = tested on: tumor necrosis factor (α) (TNF-α); experiment: Cytokine induction in human cells: TNF-α secreted by PBMC into culture media (ORIGEN M-Series immunoassay); format: cell-based; set-up: key to Maximal Response (pg/mL) TNF / Maximal Response TNF: If any negative values result from background subtraction, the reading is reported as “*”, and is noted as not reliably detectable; conditions: for Maximal Response TNF / Minimum Effective Concentration TNF / minimal effective concentration: human PBMC; for Maximal Response TNF / Maximal Response (pg/mL) TNF: median; for Minimum Effective Concentration TNF: median where tested in more than one experiment; for minimal effective concentration: lowest tested concentration inducing TNF-α over usually 40 pg/mL, median where more than one experiment, read-out: Minimum Effective Concentration (μM) TNF; for Maximal Response (pg/mL) TNF: maximal response in dose response curve
Summary of the method: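 Secreted TNF-α (pg/mL) was quantified by ORIGEN M-Series immunoassay after 18 to 24 hours culture at 37° C of human PBMC (2×10^6 cells/mL final) with test compound (usually 30-0.014 μM, 3-fold series, DMSO ≤1%). Values were corrected for DMSO or experimental background and a reference-compound ratio, giving a minimum effective concentration.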

[2] = Table 12, * = below the experimental background of 40 pg/mL
[3] = Table 11, * = TNF below experimental background of 40 pg/mL
[4] = Table 10, * = below experimental background level
[5] = Table 8, background-subtracted, reference-adjusted

CC(C)(O)Cn1c(CO)nc2c(N)nc3cc(OCc4cscn4)ccc3c21 [Example 187, 1-[4-Amino-2-hydroxymethyl-7-(thiazol-4-ylmethoxy)-1H-imidazo[4,5-c]quinolin-1-yl]-2-methylpropan-2-ol]
melting point: 260 to 262 °C

CC(C)[C@H](N)C(=O)OCc1nc2c(N)nc3ccccc3c2n1CC(C)(C)O [Example 636, [4-Amino-1-(2-hydroxy-2-methylpropyl)-1H-imidazo[4,5-c]quinolin-2-yl]methyl L-valinate]
melting point: 190 to 192 °C

CC(=O)OCc1nc2c(N)nc3ccccc3c2n1CC(C)(C)O [Example 635, [4-Amino-1-(2-hydroxy-2-methylpropyl)-1H-imidazo[4,5-c]quinolin-2-yl]methyl acetate]
melting point: 203 to 205 °C

CC(=O)OCCc1nc2c(N)nc3ccccc3c2n1CC(C)C [Example 634, 2-(4-Amino-1-isobutyl-1H-imidazo[4,5-c]quinolin-2-yl)ethyl acetate]
melting point: 187 to 189 °C

CCCc1nc2c(N)nc3cccnc3c2n1CC(C)(C)O [Analog 128, 1-(4-amino-2-propyl-1H-imidazo[4,5-c][1,5]naphthyridin-1-yl)-2-methylpropan-2-ol]
Maximal Response IFN (interferon (α) (IFN-α); Table 12): 2484 pg/mL | Maximal Response TNF [1, 2]: 5526 pg/mL

CCOCc1nc2c(N)nc3ccccc3c2n1CC(C)(C)NC(=O)C1CCCCC1 [Analog 93]
Maximal Response IFN (interferon (α) (IFN-α); Table 11): 1052 pg/mL | Minimum Effective Concentration IFN (interferon (α) (IFN-α); Table 11): 0.37 µM | Minimum Effective Concentration TNF ([1]; Table 11): 0.37 µM | Maximal Response TNF [1, 3]: 12173 pg/mL

CCOCc1nc2c(N)nc3cc(-c4cccnc4)ccc3c2n1CCCCNC(=O)C(C)C [Analog 37]
minimal effective concentration (interferon (α) (IFN-α); Table 10): 0.12 µM | Maximal Response (pg/mL) IFN (interferon (α) (IFN-α); [4]): 1194 pg/mL | minimal effective concentration ([1]; Table 10): 1.11 µM | Maximal Response (pg/mL) TNF [1, 4]: 728 pg/mL

COCCc1nc2c(N)nc3cc(-c4cccnc4)ccc3c2n1CCCN1CCCC1=O [Analog 39]
minimal effective concentration (interferon (α) (IFN-α); Table 10): 0.12 µM | Maximal Response (pg/mL) IFN (interferon (α) (IFN-α); [4]): 753 pg/mL | minimal effective concentration ([1]; Table 10): 1.11 µM | Maximal Response (pg/mL) TNF [1, 4]: 380 pg/mL

COCc1nc2c(N)nc3cc(-c4cncc(CO)c4)ccc3c2n1CC(C)(C)O [Analog 13]
minimal effective concentration (interferon (α) (IFN-α); Table 10): 0.12 µM | Maximal Response (pg/mL) IFN (interferon (α) (IFN-α); [4]): 1771 pg/mL | minimal effective concentration ([1]; Table 10): 3.33 µM | Maximal Response (pg/mL) TNF [1, 4]: 8000 pg/mL

COCCc1nc2c(N)nc3ccccc3c2n1CCCCCCCCNC(=O)Nc1ccccc1 [Analog 117]
Maximal Response IFN (interferon (α) (IFN-α); Table 11): 1257 pg/mL | Minimum Effective Concentration IFN (interferon (α) (IFN-α); Table 11): 0.014 µM | Minimum Effective Concentration TNF ([1]; Table 11): 0.12 µM | Maximal Response TNF [1, 3]: 1372 pg/mL

Cc1nc2c(N)nc3ccccc3c2n1CC(C)(C)CNS(C)(=O)=O [Analog 63]
Maximal Response IFN (interferon (α) (IFN-α); Table 11): 1019 pg/mL | Minimum Effective Concentration IFN (interferon (α) (IFN-α); Table 11): 0.37 µM | Minimum Effective Concentration TNF ([1]; Table 11): 10 µM | Maximal Response TNF [1, 3]: 805 pg/mL

CCOCc1nc2c(N)nc3cc(-c4cccnc4)ccc3c2n1CCCCNC(=O)C1CCCC1 [Analog 35]
minimal effective concentration (interferon (α) (IFN-α); Table 10): 0.04 µM | Maximal Response (pg/mL) IFN (interferon (α) (IFN-α); [4]): 969 pg/mL | minimal effective concentration ([1]; Table 10): 0.37 µM | Maximal Response (pg/mL) TNF [1, 4]: 1366 pg/mL

Nc1nc2ccccc2c2c1nc(CCO)n2CCCCNS(=O)(=O)c1ccc(F)cc1 [Example 112]
Maximal Response IFN (interferon (α) (IFN-α); Table 11): 8361 pg/mL | Minimum Effective Concentration IFN (interferon (α) (IFN-α); Table 11): 1.11 µM | Minimum Effective Concentration TNF ([1]; Table 11): 30 µM | Maximal Response TNF [1, 3]: 76 pg/mL

CC(C)(O)Cn1c(CCO)nc2c(N)nc3cc(-c4ccccc4)ccc3c21 [Example 157]
minimal effective concentration (interferon (α) (IFN-α); Table 10): 0.37 µM | Maximal Response (pg/mL) TNF [1, 4]: 67 pg/mL

CCOCc1nc2c(N)nc3cc(-c4cccnc4)ccc3c2n1CC(C)(C)O [Analog 10, 1-(4-amino-2-ethoxymethyl-7-pyridin-3-yl-1H-imidazo[4,5-c]quinolin-1-yl)-2-methylpropan-2-ol]
Maximal Response (pg/mL) IFN (interferon (α) (IFN-α); Table 9, background-subtracted, reference-adjusted): 840 pg/mL | Maximal Response (pg/mL) IFN (interferon (α) (IFN-α); [4]): 840 pg/mL | Maximal Response (pg/mL) TNF [1, 4]: 7867 pg/mL

CCOCc1nc2c(N)nc3cc(-c4cccnc4)ccc3c2n1CC(C)C [Analog 26]
minimal effective concentration (interferon (α) (IFN-α); Table 10): 0.014 µM | Maximal Response (pg/mL) IFN (interferon (α) (IFN-α); [4]): 591 pg/mL | minimal effective concentration ([1]; Table 10): 0.12 µM | Maximal Response (pg/mL) TNF [1, 4]: 647 pg/mL

CC(C)(Cn1c(CO)nc2c(N)nc3ccccc3c21)CS(C)(=O)=O [Example 364, {4-Amino-1-[2,2-dimethyl-3-(methylsulfonyl)propyl]-1H-imidazo[4,5-c]quinolin-2-yl}methanol]
Maximal Response IFN (interferon (α) (IFN-α); Table 11): 5343 pg/mL | Maximal Response TNF [1, 3]: 164 pg/mL

CS(=O)(=O)NCCn1c(CO)nc2c(N)nc3cccnc3c21 [Example 146, N-[2-(4-Amino-2-hydroxymethyl-1H-imidazo[4,5-c][1,5]naphthyridin-1-yl)ethyl]methanesulfonamide]
Maximal Response IFN (interferon (α) (IFN-α); Table 12): 1520 pg/mL | Maximal Response TNF [1, 2]: *

COCCc1nc2c(N)nc3cccnc3c2n1CC(C)(C)O [Analog 7, 1-[4-amino-2-(2-methoxyethyl)-1H-imidazo[4,5-c][1,5]naphthyridin-1-yl]-2-methylpropan-2-ol]
Maximal Response (pg/mL) IFN (interferon (α) (IFN-α); [5]): 4143 pg/mL | Maximal Response IFN (interferon (α) (IFN-α); Table 12): 3142 pg/mL | Maximal Response (pg/mL) TNF [1, 5]: 7762 pg/mL | Maximal Response TNF [1, 2]: 7503 pg/mL

CC(C)C(=O)NCCCn1c(CCO)nc2c(N)nc3ccccc3c21 [Example 141, N-{3-[4-Amino-2-(2-hydroxyethyl)-1H-imidazo[4,5-c]quinolin-1-yl]propyl}-2-methylpropionamide]
Maximal Response IFN (interferon (α) (IFN-α); Table 11): 14046 pg/mL | Maximal Response TNF [1, 3]: 243 pg/mL

Nc1nc2cc(-c3cccnc3)ccc2c2c1nc(CO)n2CCCCNC(=O)C1CCCC1 [Example 198]
Maximal Response (pg/mL) IFN (interferon (α) (IFN-α); [4]): 2745 pg/mL | Maximal Response (pg/mL) TNF [1, 4]: 410 pg/mL

CC(C)Cn1c(CCO)nc2c(N)nc3cc(-c4cccnc4)ccc3c21 [Example 158]
minimal effective concentration (interferon (α) (IFN-α); Table 10): 0.37 µM | Maximal Response (pg/mL) TNF [1, 4]: 42 pg/mL

CCc1nc2c(N)nc3ccccc3c2n1CCCNS(C)(=O)=O [Analog 59]
Maximal Response IFN (interferon (α) (IFN-α); Table 11): 1912 pg/mL | Minimum Effective Concentration IFN (interferon (α) (IFN-α); Table 11): 1.11 µM | Minimum Effective Concentration TNF ([1]; Table 11): 30 µM | Maximal Response TNF [1, 3]: 238 pg/mL

COCCc1nc2c(N)nc3ccccc3c2n1CCCCNC(=O)c1nccc2ccccc12 [Analog 112]
Maximal Response IFN (interferon (α) (IFN-α); Table 11): 2127 pg/mL | Minimum Effective Concentration IFN (interferon (α) (IFN-α); Table 11): 0.014 µM | Minimum Effective Concentration TNF ([1]; Table 11): 0.04 µM | Maximal Response TNF [1, 3]: 1462 pg/mL

CC(C)(Cn1c(CO)nc2c(N)nc3cccnc3c21)NS(C)(=O)=O [Example 144, N-[2-(4-Amino-2-hydroxymethyl-1H-imidazo[4,5-c][1,5]naphthyridin-1-yl)-1,1-dimethylethyl]methanesulfonamide]
Maximal Response IFN (interferon (α) (IFN-α); Table 12): 1914 pg/mL | Maximal Response TNF [1, 2]: 170 pg/mL

COCCc1nc2c(N)nc3ccccc3c2n1CCCNC(=O)N1CCOCC1 [Analog 89]
Maximal Response IFN (interferon (α) (IFN-α); Table 11): 5915 pg/mL | Minimum Effective Concentration IFN (interferon (α) (IFN-α); Table 11): 0.014 µM | Minimum Effective Concentration TNF ([1]; Table 11): 0.014 µM | Maximal Response TNF [1, 3]: 6169 pg/mL

CCc1nc2c(N)nc3ccccc3c2n1CCNC(=O)CC(C)C [Analog 105]
Maximal Response IFN (interferon (α) (IFN-α); Table 11): 851 pg/mL | Minimum Effective Concentration IFN (interferon (α) (IFN-α); Table 11): 3.33 µM | Minimum Effective Concentration TNF ([1]; Table 11): 30 µM | Maximal Response TNF [1, 3]: 587 pg/mL

COCCc1nc2c(N)nc3ccccc3c2n1CC(C)(C)CNC(=O)Nc1ccccc1 [Analog 92]
Maximal Response IFN (interferon (α) (IFN-α); Table 11): 570 pg/mL | Minimum Effective Concentration IFN (interferon (α) (IFN-α); Table 11): 0.014 µM | Minimum Effective Concentration TNF ([1]; Table 11): 0.04 µM | Maximal Response TNF [1, 3]: 6449 pg/mL

CCNC(=O)NCCn1c(CC)nc2c(N)nc3ccccc3c21 [Analog 103]
Maximal Response IFN (interferon (α) (IFN-α); Table 11): 1031 pg/mL | Minimum Effective Concentration IFN (interferon (α) (IFN-α); Table 11): 3.33 µM | Minimum Effective Concentration TNF ([1]; Table 11): 10 µM | Maximal Response TNF [1, 3]: 3250 pg/mL

COCCc1nc2c(N)nc3ccccc3c2n1CCCCCS(C)(=O)=O [Analog 76]
Maximal Response IFN (interferon (α) (IFN-α); Table 11): 2695 pg/mL | Minimum Effective Concentration IFN (interferon (α) (IFN-α); Table 11): 0.014 µM | Minimum Effective Concentration TNF ([1]; Table 11): 1.11 µM | Maximal Response TNF [1, 3]: 6169 pg/mL

CCc1nc2c(N)nc3cc(-c4cncc(CO)c4)ccc3c2n1CC(C)(C)O [Analog 15]
minimal effective concentration (interferon (α) (IFN-α); Table 10): 0.014 µM | Maximal Response (pg/mL) IFN (interferon (α) (IFN-α); [4]): 2084 pg/mL | minimal effective concentration ([1]; Table 10): 1.11 µM | Maximal Response (pg/mL) TNF [1, 4]: 10087 pg/mL

Source: US8846710B2, “Method of preferentially inducing the biosynthesis of interferon” (3M Innovative Properties Company, priority 2005, dated 2014)
